Tested on: Saccharomyces cerevisiae ABC16-Green Monster
Assay: growth inhibition at single dose (up to 150 µM), below the 70% cut-off for dose-response; higher = more potent
Conditions: 18 h; 30 °C; YPD
Summary of the method: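 Drug-sensitive S. cerevisiae ABC16-Green Monster cells were grown overnight in YPD at 30 °C and diluted to log phase (OD600 0.1–0.2). Each library compound was added at one dose of 150 µM to 200 µl culture per well in 96-well plates, in biological duplicates, with untreated cultures alongside. OD600 was read at 0 h and after 18 h at 30 °C. The value is percent growth inhibition; compounds below 70% in both replicates were not taken to dose-response.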

SMILES | growth inhibition at single dose
c1nc(NCc2ccc(CN3CCOCC3)cc2)c2sccc2n1 | < 70%
CCOc1ccc(S(=O)(=O)CC2=NCCc3cc(OC)c(OC)cc32)cc1 | < 70%
N=c1n(CCN2CCCCC2)c2ccccc2n1CC(O)c1cccc(Br)c1 (stereo not drawn) | < 70%
CC(Nc1ncnc2sccc12)c1ccc(F)cc1 (stereo not drawn) | < 70%
Cc1ccc(S(=O)(=O)N2c3ccc(S(N)(=O)=O)cc3CC2C)cc1 (stereo not drawn) | < 70%
Cc1cc2nnc(-c3ccc(C(F)(F)F)cc3)n2[nH]1 | < 70%
CCn1c(O)c(C2NCCc3c2[nH]c2ccc(OC)cc32)c(=O)[nH]c1=O (stereo not drawn) | < 70%
Cc1nn2c(=O)c3c([nH]c2c1-c1ccc(Cl)cc1)CCCC3 | < 70%
CC1CS(=O)(=O)CCN1/N=C/c1ccc([N+](=O)[O-])o1 (stereo not drawn) | < 70%
CCOc1ccc(N2C(N)=NC(N)=NC2(C)C)cc1 | < 70%
O=C(Nc1ccc(CN2CCOCC2)cc1)c1ccc(-c2ccc(Br)cc2)o1 | < 70%
CC(C)(C)CN1C(=O)C(c2ccccc2)(c2ccccc2)N=C1N | < 70%
CC(C)(C)C(=O)Nc1ccc(-c2nc3ncccc3o2)c(Cl)c1 | < 70%
Cc1ccc(-c2cnn3c(NCCN(C)C)cc(C)nc23)cc1 | < 70%
CCOc1ccc(C=Cc2nc(=O)c3ccccc3o2)cc1 | < 70%
CCCCOC(=O)Nc1cc2nc(C3CCCCC3)[nH]c2cc1N1CCCC1 | < 70%
CC1CCN(Cc2ccc(NC(=O)c3cc4ccc5cccnc5c4[nH]3)cc2)CC1 | < 70%
Cc1cnc(N2CCN[C@@H](Cc3ccccc3)C2)nc1Oc1ccc(-n2ccnc2)cc1 | < 70%
CCCCNCC(O)(c1ccc(Cl)cc1)c1ccc(Cl)cc1 | < 70%
Cn1c(=O)c2c(S(C)(=O)=O)snc2n(C)c1=O | < 70%
CC(C)OCc1cc(CN2CCN(c3cccc(Cl)c3)CC2)c(O)c2ncccc12 | < 70%
Cc1[nH]c2cc(F)cc(F)c2c(=O)c1-c1ccc(Oc2ccc(OC(F)(F)F)cc2)cc1 | < 70%
C[n+]1c2ccccc2nc2ccc(NCCO)cc21 | < 70%
Clc1ccc2[nH]c3c(NCCCN4CCOCC4)ncnc3c2c1 | < 70%

SMILES | growth inhibition at single dose
N=C(N)N/N=C/c1ccc(Cl)cc1Cl | < 70%
O=C(NNc1cccc(F)n1)C(F)(F)F | < 70%
CC(=O)N1CCc2cc3nc(C)cc(C)c3cc21 | < 70%
CN(C(=O)CSc1nnc(COc2ccccc2F)n1N)C1CCCCC1 | < 70%
CCCCN(CCCC)S(=O)(=O)c1ccc(NC(=O)c2ccco2)cc1 | < 70%
COc1cc2ncnc(NC3CCN(Cc4ccccc4)CC3)c2cc1OC | < 70%
COc1ccc2c(c1)CCCN2C(=O)c1occc1C | < 70%
OC(CNC1CCCC1)Cn1c2ccccc2c2ccccc21 (stereo not drawn) | < 70%
Cc1ccc(-c2cc(C(=O)Nc3cccnc3)c3cc(Br)ccc3n2)cc1 | < 70%
CC(C)(C)OC(=O)N1CCC(Cn2nc(-c3cnc4ccccc4c3)c3c(N)ncnc32)CC1 | < 70%
CN(Cc1c(F)cccc1Cl)C(=O)COc1ccc2[nH]c3ccccc3c(=O)c2c1 | < 70%
O=C(NCc1ccco1)C1CCN(S(=O)(=O)c2ccc(Cl)cc2)CC1 | < 70%
COc1cccc(Nc2nc(N)c3ccccc3n2)c1 | < 70%
O=C(Nc1ccccc1C(=O)Nc1nnc(C(F)(F)F)s1)c1ccccc1 | < 70%
CCOc1ccc2cc(-c3nn(C(C)(C)C)c(N)c3C(N)=O)cnc2c1 | < 70%
COc1ccc(Nc2cc(C)nc(NCc3ccccc3)n2)cc1 | < 70%
COc1ccc(S(=O)(=O)Nc2ccc(CN3CCN(C(=O)c4cccc(C#N)c4)CC3)cc2)cc1 | < 70%
O=C(c1ccc(F)cc1)N(CCNc1ccccc1)c1ccccc1 | < 70%
COc1cccc(CC(=O)N2CCC(n3c(C)nc4ccc(F)cc43)CC2)c1 | < 70%
Cc1cc(Nc2ccc(Cl)cc2)n2nc(C(F)(F)F)nc2n1 | < 70%
COc1ccccc1C(=O)ON=C(N)Cc1cccc2ccccc12 | < 70%
Cc1sc(NC(=O)c2ccco2)c(C(c2cccnc2)N2CCC(Cc3ccccc3)CC2)c1C (stereo not drawn) | < 70%
CCOC(=O)c1c(C)[nH]c(C(=O)Nc2cccc(C)n2)c1C | < 70%
CCOc1ccc(CN(C)CC(=O)NCCc2ccc(S(N)(=O)=O)cc2)cc1 | < 70%

SMILES | growth inhibition at single dose
Cc1nc(NCc2ccc(N3CCN(C)CC3)nc2)c2c(-c3ccccc3)csc2n1 | < 70%
Nc1ncnc2c1ncn2[C@@H]1O[C@H](COS(=O)(=O)NC(=O)c2ccccc2O)[C@@H](O)[C@H]1O | < 70%
O=C(COc1ccc2[nH]c3ccccc3c(=O)c2c1)N1c2ccccc2OCC1c1ccccc1 (stereo not drawn) | < 70%
CCOc1ccc(Nc2c3ccccc3nc3ccccc23)cc1 | < 70%
Cc1ccc(Nc2nc(-c3ccccn3)cs2)cc1 | < 70%
CCc1c(C)[nH]c2cc(-c3ccc(OC)cc3)nn2c1=O | < 70%
CCn1ncc2c(NC3CCOCC3)c(CNC(=O)c3ccnn3C)c(C)nc21 | < 70%
Cc1ccc(-c2cc3c(SCC(=O)Nc4cc(C(F)(F)F)ccc4Cl)nccn3n2)cc1 | < 70%
O=C(Nc1ccc([N+](=O)[O-])cc1)Nc1cccnc1Cl | < 70%
Cc1cc(N2CCN(C)CC2)n2ncc(-c3ccccc3Cl)c2n1 | < 70%
CCOC(=O)C1(Cc2ccccc2)CCN(Cc2cccc(OC)c2O)CC1 | < 70%
C[C@H]1c2cccc(O)c2C(=O)C2=C(O)[C@]3(O)C(=O)C(C(N)=O)=C(O)[C@@H](N(C)C)[C@@H]3[C@@H](O)[C@@H]21 | < 70%
CO[C@@H](C(=O)N1Cc2[nH]nc(NC(=O)c3ccc(N4CCN(C)CC4)cc3)c2C1)c1ccccc1 | < 70%
Cc1nc(-c2ccc(CCNc3ncnc4sccc34)cc2)cs1 | < 70%
Cc1cnc(NC(=O)c2ccc(C3SCCS3)cc2)s1 | < 70%
OC(Cn1nnc2ccccc21)Cn1c2ccc(Br)cc2c2cc(Br)ccc21 (stereo not drawn) | < 70%
O=C(Nc1ccc(Oc2ccc3ccccc3c2)cc1)c1ccccc1 | < 70%
CCOC(=O)c1cnc2ccc(OC)cc2c1NCc1ccccc1 | < 70%
CC1c2cccc(O)c2C(O)=C2C(=O)C3(O)C(O)=C(C(N)=O)C(=O)C(N(C)C)C3C(O)C21 (stereo not drawn) [Doxycycline] | < 70%
CCOc1ccccc1NC(C)C(=O)Nc1cc(C(F)(F)F)ccc1N1CCOCC1 (stereo not drawn) | < 70%
CCOC(=O)C1=C(c2ccccc2)N=c2sc(=Cc3cc(C)n(-c4ccc(F)cc4)c3C)c(=O)n2C1c1cccc(OC)c1OC (stereo not drawn) | < 70%
C[C@H]1COc2c(N3CCN(C)CC3)c(F)cc3c(=O)c(C(=O)O)cn1c23 | < 70%
Nc1nn(C(=O)c2csc3ccccc23)c2ccccc12 | < 70%
Nc1ccn(C2O[C@H](CO)[C@@H](O)[C@H]2O)c(=O)n1 (stereo partly drawn) | < 70%

SMILES | growth inhibition at single dose
O=C(NC1CC1)c1ccc(CN(Cc2ccco2)Cc2nc(-c3ccc(F)cc3)no2)cc1 | < 70%
COc1ccc(C=C2SC(Nc3ccccc3)=NC2=O)cc1 | < 70%
CN1C=C(c2ccc3ccccc3n2)C(c2c[nH]c3ccccc23)c2ccccc21 (stereo not drawn) | < 70%
CC(C)(C)C(=O)N(CCCCCCN1C[C@H](O)[C@@H](O)[C@H](O)[C@H]1CO)C1CCCCCC1 | < 70%
COCC(C)Nc1ncnc2scc(-c3ccc(OC)cc3)c12 (stereo not drawn) | < 70%
CC(=O)NC[C@@H]1CN(c2ccc(N3CCOCC3)c(F)c2)C(=O)O1 | < 70%
Cc1ccc2ncnc(NCCc3ccccc3)c2c1 | < 70%
COC(=O)Cc1[nH]n(-c2nc3ccccc3s2)c(=O)c1C(C)=NCCO | < 70%
COc1ccc(-c2cnc3ccc(NCc4ccc(S(N)(=O)=O)cc4)nn23)cn1 | < 70%
O=C(Nc1ccsc1C(=O)NC1CCCCC1)c1ccc(F)cc1 | < 70%
COc1ccc2nc(C)cc(Nc3cccc(O)c3)c2c1 | < 70%
CC(=O)O[C@H]1CC[C@]2(C)C3CC[C@]4(C)C(C5=CC(=O)OC5)CC[C@]4(O)C3CC[C@@H]2C1 (stereo partly drawn) | < 70%
CC1=C(C(=O)Nc2ccccc2)C(c2ccco2)C(C#N)=C(SCc2ccccc2Cl)N1 (stereo not drawn) | < 70%
Cc1c(C)n(CC(O)CNC2CCCCC2C)c2ccccc12 (stereo not drawn) | < 70%
Cc1ccc(-c2csc(Nc3ccccn3)n2)c(C)c1 | < 70%
Nc1ncc(Br)cc1-c1nc2cc(Cl)cnc2[nH]1 | < 70%
CC(C)NCC(=O)Nc1cccc(C(=O)Nc2cccc(C(F)(F)F)c2)c1 | < 70%
O=C(NCC1Cc2cccc(-c3ccncc3)c2O1)c1csc2c1CCCC2 (stereo not drawn) | < 70%
CCS(=O)(=O)c1ncc(Cl)c(C(=O)Nc2ccccc2C(F)(F)F)n1 | < 70%
Cc1ccccc1C(=O)N1N=C(Nc2ccccc2)SC1(C)C | < 70%
COc1ccc(C2=NCCN2)cc1-c1cn(-c2cccc(C3=NCCN3)c2)nn1 | < 70%

— the supplement of paper PMC8837787
